Key:
[1] = system: CD34+ CD38− human bone marrow cells; conditions: cited from earlier work
[2] = Solubility in water; assay type: physicochemical; conditions: parent compound without salt formation or use of specialized excipients
Description: A red solution of Compound 3f, 1 M HCl (0.75 mL, 0.75 mmol) and ethanol (1.5 mL) was cooled to 0 deg C. under nitrogen. A solution of 0.060 g of sodium nitrite in 1 mL of water was prepared separately and 0.25 mL (0.22 mmol of sodium nitrite) was added dropwise to the solution containing compound 3f with formation of a dark red-yellow color. The diazotization was monitored using TLC with 75% ethyl acetate-hexanes. Compound 1b (0.042 g, 0.21 mmol) was added after 30 min followed by sodium bicarbonate (0.086 g, 1.0 mmol) and additional ethanol (0.3 mL). The mixture was allowed to warm to 20 deg C., treated with additional sodium bicarbonate (0.073 g, 0.87 mmol) to adjust the pH to 7-8, and allowed to stir for 12 h. The mixture was diluted with ethyl acetate (100 mL) and 0.1 M HCl (5 mL). The aqueous layer was separated and extracted with 20 mL of ethyl acetate. The combined organics were washed with saturated sodium chloride (2×20 mL), and dried over sodium sulfate. The solvent was removed under reduced pressure and the residue purified by silica gel chromatography (40% ethyl acetate-hexanes) to afford Example 3 (0.0256 g, 29% yield over 2 steps). Electrospray MS [M]− 447.2.

solubility [2] | Compound | expansion of multipotent progenitors ([1]; following a 14-day incubation) | enhancement of clonogenic growth ([1]; in response to KL+FL+IL-3+IL-6+EPO)
 | Thrombopoietin [TPO] | 40 fold | ≤ 80%
140 µM | CC1=NN(c2ccc(C)c(C)c2)C(=O)/C1=N\Nc1cccc(C2CCCC(C(=O)O)C2)c1O (stereo not drawn) [Example 3, 3-(3′-{2-[1-(3,4-dimethylphenyl)-3-methyl-5-oxo-4,5-dihydro-1H-pyrazol-4-ylidene]hydrazino}-2′-hydroxy-phenyl)cyclohexane-1-carboxylic Acid] |  | 

— patent publication US8143287B2, “Thrombopoietin mimetics” (Stategics, Inc., priority 2006, dated 2012)
